{
  "source": "patent US20090306103A1",
  "about": "“PYRIDONECARBOXAMIDE DERIVATIVES USEFUL IN TREATING HYPER-PROLIFERATIVE AND ANGIOGENESIS DISORDERS” (priority 2006, published 2009)",
  "origin": "cited, not measured here",
  "key": {"Bcr-Abl E255K mutant": {"system": "Bcr-Abl E255K mutant", "conditions": "read-out: IC50 against E255K mutant; biochemical assay"}, "Bcr-Abl": {"system": "Bcr-Abl", "conditions": "greater potency than Imatinib"}, "[1]": {"system": "Bcr-Abl Imanitib resistant mutations"}},
  "data": [
    {"smiles": "Cc1cn(-c2cc(NC(=O)c3ccc(C)c(Nc4nccc(-c5cccnc5)n4)c3)cc(C(F)(F)F)c2)cn1", "note": "[AMN-107]", "values": [
      {"measurement": "IC50", "setting": "Bcr-Abl E255K mutant", "result": 0.4, "unit": "µM"},
      {"measurement": "potency of Bcr-Abl kinase inhibition relative to Imatinib", "setting": "Bcr-Abl", "result": 20, "unit": "fold"},
      {"measurement": "inhibition of Imanitib resistant mutations", "setting": "[1]", "result": "inhib most Imanitib resistant mutations except for T315I"}
    ]}
  ]
}
